# From patent US20070219117A1, “BIDENTATE MOTIF AND METHODS OF USE” (MEDVET SCIENCE PTY LTD, priority 2003, published 2007)
# Entries after “also recorded” stand apart in the source; their conditions may differ.
# Key:
# Type in all cases: cell-based
# [1] = test system: primary human neutrophils; assay: Survival of primary human neutrophils, annexin V-FITC; conditions: for effect on neutrophil survival in response to low concentrations of GM-CSF: 15 μM inhibitor; for cell survival: neutrophils
# Description: Survival was determined by annexin V-FITC (Roche) staining essentially as previously described (Guthridge et al., 2000). […] After 48 hours, cells were stained with the 4H1 anti-GMRα mAb and annexin V-FITC. The proportion of GMRα-positive cells remaining viable (annexin V-FITC-negative) after culture was analysed by flow cytometry. […] In some experiments forskolin ICN Biochemicals), H89 (Seikaguku Corporation), LY294002 (Cayman Chemical Company), genestein (Sigma) or AG490 (Biomol) were used.
# [2] = test system: Akt; assay: Akt Ser473 phosphorylation immunoblot in CTL-EN cells expressing the wt GM-CSF receptor; conditions: 1 pM GM-CSF, compared with 1000 pM GM-CSF
# Description: (§1) Cells were factor-deprived in RPMI containing 0.1% FCS for 24 h and then stimulated for 10 min with different GM-CSF concentrations before lysis as previously described (Guthridge et al., 2000). Human mononuclear cells from normal donors and from leukemic patients were separated from peripheral blood by centrifugation over ficoll. The βc subunit was immunoprecipitated using a mixture of 1C1 and 8E4 anti-βc mAb (1C1/8E4)(1 μg each/immunoprecipitation) and immunoprecipitates subjected to SDS-PAGE and immunoblot analysis. Affinity purified anti-14-3-3 pAb (EB1) were used at a dilution of 1:5000 (Guthridge et al., 2000). Anti-MAP2 mAb (MK12)(Pharmingen) was used at a dilution of 1:5000. Anti-p85 pAb antibodies (UBI) were used at a dilution of 1:1000. The 4G10 anti-phosphotyrosine mAb (UBI) was used at 1 pg/ml. The anti-active-ERK pAb (Promega) was used at 50 ng/ml, the anti-phosphorylated STAT5 mAb (Zymed) was used at 2 μg/ml, the anti-phospho-JAK2 pAb (Affinity Bioreagents) was used at 0.5 μg/ml. Affinity purified anti-βc phospho-577 pAb (Guthridge et al., 2004) were used at a dilution of 1:1000. Antibodies to phospho-Ser585 of βc (Guthridge et al., 2000) were used at a dilution of 1:5000. The phosphorylation of Akt in response to GM-CSF was examined in CTL-EN cells electroporated with the pCMV-AKT-HA plasmid (30 μg DNA/1×10^7 cells)(kindly provided by P. N. Tsichlis). […]
# [3] = test system: PKA; assay: Protein kinase A (PKA) kinase assay in TF-1 cells; conditions: 1 pM GM-CSF, up to 30 min, compared with 1000 pM
# Description: TF-1 cells were factor-deprived overnight in DMEM containing 0.5% FCS. Cells (4×10^6) were stimulated with GM-CSF or forskolin before lysis in 1 ml 20 mM Tris HCl pH 7.4, 0.5 mM EDTA, 0.5 mM EGTA, 10 mM 2-mercaptoethanol, 5% Glycerol and 2 mM NaF by 20 strokes of a dounce homogenizer on ice. The lysate was centrifuged at 170 g for 15 min and the supernatant then centrifuged at 100,000 g for 1 h at 4° C. The resulting pellet was resuspended in NP40 lysis buffer with a protease/phosphatase inhibitor cocktail (Guthridge et al., 2000; Guthridge et al., 2004). Lysate (2 μl) was then tested for PKA activity by adding 40 μM kemptide, 0.25 μCi [y-^32P] ATP, 1 μM cold ATP, in a buffer containing 10 mM MgCl2, 10 mM Tris HCl pH7.4, 1 mM β-glycerol phosphate and 1 mM DTT. Reactions (20 μl) were incubated at 30° C. for 30 min and aliquots were examined for 32P-labelled kemptide on p81 phosphocellulose filters (Whatman) and liquid scintillation counting (Guthridge et al., 2000).
# [4] = test system: βc subunit of the GM-CSF receptor (Ser585, Tyr577); assay: βc immunoprecipitation and phospho-specific immunoblot in TF-1 cells after GM-CSF titration
# Description: Cells were factor-deprived in RPMI containing 0.1% FCS for 24 h and then stimulated for 10 min with different GM-CSF concentrations before lysis as previously described (Guthridge et al., 2000). Human mononuclear cells from normal donors and from leukemic patients were separated from peripheral blood by centrifugation over ficoll. The βc subunit was immunoprecipitated using a mixture of 1C1 and 8E4 anti-βc mAb (1C1/8E4)(1 μg each/immunoprecipitation) and immunoprecipitates subjected to SDS-PAGE and immunoblot analysis. Affinity purified anti-14-3-3 pAb (EB1) were used at a dilution of 1:5000 (Guthridge et al., 2000). Anti-MAP2 mAb (MK12)(Pharmingen) was used at a dilution of 1:5000. Anti-p85 pAb antibodies (UBI) were used at a dilution of 1:1000. The 4G10 anti-phosphotyrosine mAb (UBI) was used at 1 pg/ml. The anti-active-ERK pAb (Promega) was used at 50 ng/ml, the anti-phosphorylated STAT5 mAb (Zymed) was used at 2 μg/ml, the anti-phospho-JAK2 pAb (Affinity Bioreagents) was used at 0.5 μg/ml. Affinity purified anti-βc phospho-577 pAb (Guthridge et al., 2004) were used at a dilution of 1:1000. Antibodies to phospho-Ser585 of βc (Guthridge et al., 2000) were used at a dilution of 1:5000. The phosphorylation of Akt in response to GM-CSF was examined in CTL-EN cells electroporated with the pCMV-AKT-HA plasmid (30 μg DNA/1×10^7 cells)(kindly provided by P. N. Tsichlis). 24 h after electroporation the cells were factor-deprived overnight in DMEM/0.5% FCS. Cells were then stimulated (10^7 cells/time point) with either 1 pM or 1000 pM GM-CSF and lysed in RIPA buffer (150 mM NaCl, 1.0% NP40, 0.5% Deoxycholate, 0.1% SDS, 50 mM Tris pH8.0) and subjected to SDS-PAGE and immunoblot analysis with the anti-phospho-Akt Ser473 pAb (1:1000)(Cell Signalling Technologies).
# [5] = test system: JAK2, STAT5 and ERK; assay: Immunoblot of TF-1 lysates for phospho-JAK2, phospho-STAT5 and active ERK; conditions: also βc tyrosine phosphorylation and p85 recruitment
# Description: as §1
# [6] = test system: TF-1 cells; assay: TF-1 cell survival, annexin V-FITC flow cytometry; conditions: data not shown
# Description: Survival was determined by annexin V-FITC (Roche) staining essentially as previously described (Guthridge et al., 2000). Briefly, transduced fetal liver cells were plated in IMDM and either 0.1% or 10% FCS containing either no GM-CSF, […] hGM-CSF or a positive control cytokine cocktail containing 50 ng/ml IL-6 (Peprotech), 100 ng/ml mouse SCF and 10 ng/ml G-CSF (Amgen). After 48 hours, cells were stained with the 4H1 anti-GMRα mAb and annexin V-FITC. The proportion of GMRα-positive cells remaining viable (annexin V-FITC-negative) after culture was analysed by flow cytometry. The regulation of TF-1 cell survival by GM-CSF was determined as previously described (Guthridge et al., 2000; Guthridge et al., 2004). To examine the survival of primary human neutrophils in response to GM-CSF, we modified our previously described assay (Begley et al., 1986). Neutrophils purified by centrifugation through Lymphoprep (Axis-Shield) were plated at 1.5×10^5 cells/ml in IMDM/0.5% FCS containing different concentrations of GM-CSF and cell survival was examined as previously described (Guthridge et al., 2000). In some experiments forskolin ICN Biochemicals), H89 (Seikaguku Corporation), LY294002 (Cayman Chemical Company), genestein (Sigma) or AG490 (Biomol) were used.
compound,measurement,setting,value
N#C/C(=C/c1ccc(O)c(O)c1)C(=O)NCc1ccccc1 [AG490],effect on neutrophil survival in response to low concentrations of GM-CSF,[1],Neither inhibitor was able to block; also recorded: survival was increased
O=c1c(-c2ccc(O)cc2)coc2cc(O)cc(O)c12 [genestein],effect on neutrophil survival in response to low concentrations of GM-CSF,[1],Neither inhibitor was able to block
C=C[C@@]1(C)CC(=O)[C@]2(O)[C@@]3(C)[C@@H](O)CCC(C)(C)[C@@H]3[C@H](O)[C@H](OC(C)=O)[C@@]2(C)O1 [forskolin],cell survival,[1]; forskolin in the absence of GM-CSF (from 27% without),46%
GM-CSF: cytokine; human GM-CSF used to stimulate cells via the GM-CSF receptor,phosphorylation of Ser473 of Akt,[2],the magnitude was reduced and the kinetics were delayed
same,PKA activity,[3],higher and more sustained
same,GM-CSF concentration at which Tyr577 phosphorylation was detectable,"[4]; TF-1 cells, 10 min stimulation",greater than 10 pM
same,GM-CSF concentration at which phosphorylation of Ser585 decreased,"[4]; TF-1 cells, 10 min stimulation",10 pM
same,GM-CSF concentration at which phosphorylation of Ser585 increased,"[4]; TF-1 cells, 10 min stimulation",< 3 pM
same,GM-CSF concentration at which phosphorylation of Ser585 was virtually absent,"[4]; TF-1 cells, 10 min stimulation",over 100 pM
same,"GM-CSF concentration that promotes Ser585 phosphorylation, 14-3-3 binding and p85 recruitment",[4]; low concentration signal,< 3 pM
same,cell survival,[1]; 0.1 pM GM-CSF,90%
same,cell survival,[1]; 1 pM GM-CSF,83%
same,"GM-CSF concentration resulting in phosphorylation of JAK2, STAT5 and ERK",[5],> 10 pM
O=S(=O)(NCCNC/C=C/c1ccc(Br)cc1)c1cccc2cnccc12 [H89],effect on GM-CSF-promoted survival of neutrophils,[1]; neutrophils stimulated with GM-CSF,reduced
same,effect on ability of GM-CSF to promote survival in TF-1 cells,[6],reduced
